Results: patent US7968323B2, “Bacterial ghost (BG) production process using betapropiolactone (BPL) for final inactivation” (priority 2008, dated 2011)

Tests used:
[1] = test system: E. coli NM522 (pBBR1MCS5); experiment: BPL treatment of E. coli NM522 (pBBR1MCS5, no E-lysis), small scale, CFU; format: cell-based; conditions: 0.05% BPL, 42° C., 30 min
Description: (§1) 2. Comparison of E. coli NM522 (pBBR1MCS5, no E-lysis) and E. coli BG NM522 (pGlysivb, E-lysis Plasmid) Treated vs. Nontreated with BPL at a Final Concentration of 0.05% BPL at 42° C.
(§2) Data from E. coli NM522 (pBBR1MCS5) that have been treated with 0.05% BPL at 42° C. (FIG. 4A) are showing that a reduction in viability of ˜5 log is obtained in small scale experiments whereas E. coli BG NM522 (pGlysivb) treated with 0.05% BPL at 42° C. […] Using a concentration of 0.05% BPL under a temperature of 42° C. and 30 min for the reaction is sufficient for E-lysed bacteria to be safely inactivated; no living cell counts are detected.

[2] = test system: E. coli BG NM522 (pGlysivb); experiment: BPL treatment of E. coli BG NM522 (pGlysivb, E-lysis plasmid), small scale, CFU; format: cell-based; conditions: 0.05% BPL, 42° C., 30 min
Description: as §1, §2

E. coli NM522 pGlysivb = experiment: Temperature study of BPL inactivation rates; format: cell-based; conditions: 0.05% BPL; for reduction of CFU: within 30 min; for time to BPL inactivation: starting CFU approximately 110^3/ml
Description: The sterilizing activity of BPL and its self destruction in water is temperature dependant.

[3] = test system: E. coli NM522 (backbone plasmid pBBR1MCS5); experiment: BPL treatment in 20 l fermenter, control without lysis, CFU; format: cell-based; conditions: 0.05% BPL, 42° C., 30 min
Description: (§3) During the production process samples of the culture broth are taken at fixed timepoints (labeled A-M in FIG. 3) to determine optical density, colony forming units (CFU), BG appearance by microscopy as well as for real time PCR analysis of DNA contents. Fermentation parameters like pH, air flow, pO2, stirring and temperature are automatically documented by the fermentation program. Throughout the consistency study all parameters were kept in a narrow window.
(§4) BPL killing rates as well as DNA concentration of bacterial samples were measured at time points and under fermentation conditions as described for BG production (Example 1, FIG. 3).

[4] = test system: E. coli NM522 BG (pGlysivb); experiment: BPL treatment in 20 l fermenter, E-lysed BG, CFU; format: cell-based; conditions: 0.05% BPL, 42° C., 30 min
Description: (§5) Gram negative bacteria (e.g E. coli or Shigella flexneri 2a in this study) are transformed with plasmid pGlysivb (encoding lysis gene E, construction as described in FIG. 2) or pGLNIc (encoding both the lysis gene E and the Staphylococcus aureus nuclease gene SNUC; WO 03/006630). Plasmids, pGlysivb and pGLNIc tightly regulate expression of lysis gene E by a temperature upshift from 35° C. to 42-44° C. under the mutated thermosensitive Lambda-promotor (λPRmut) and the expression of SNUC depends on induction from an upstream lac-promotor by addition of IPTG. As a consequence of protein E expression an E-specific tunnel structure between the inner and outer membrane of the bacteria is formed resulting in the expulsion of the cytoplasmic contents, including chromosomal and plasmid DNA, into the culture media under conditions described, at least 99.9% of all bacteria are converted into BG during the E-lysis process. To guarantee nucleic acid free BG a second system is activated in case of pGLNIc making use of the DNA and RNA degrading capabilities of SNUC. […]
as §4

[5] = test system: E. coli NM522 (pGlysivb, pSNUCIQ3); experiment: BPL inactivation of E-SNUC BG in 20 l fermenter; format: cell-based; conditions: 42° C., 30 min
Description: as §5, with “SNUC. The nuclease is expressed −30 min before induction of gene E expression during the exponential growth phase of the bacteria and is activated after completion of E-lysis by addition of magnesiumchloride and calciumchloride.” for “SNUC.”

[6] = test system: Shigella flexneri 2a (backbone plasmid pBBR1MCS5); experiment: Control fermentations inactivated with BPL, CFU; format: cell-based; conditions: 0.05% BPL, 30 min, two control fermentations
Description: as §3
To determine the inactivation effect of BPL to Shigella flexneri 2a bacteria under the same fermentation conditions as for production of BG two control fermentations using Shigella flexneri 2a transformed with the backbone plasmid pBBR1MCS5 (no lysis, no nuclease) were performed. BPL killing rates as well as DNA concentration of bacterial samples was measured at time points and under fermentation conditions described for BG production (Example 1, FIG. 3).

[7] = cited from earlier work

In the case of `O=C1CCO1` [BPL, betapropiolactone], the reduction in viability [1] is reported as ~5 log, the “surviving bacteria after BPL treatment” value [2] is reported as “no surviving bacteria” and the “reduction of CFU” value (E. coli NM522 pGlysivb; 16° C.) is reported as “less than 0.5 log”. The “reduction of CFU” value (E. coli NM522 pGlysivb; 28° C.) was “approximately 1.5 log”, the “time to BPL inactivation” value (E. coli NM522 pGlysivb; 36° C.) was 30 min and the “time to BPL inactivation” value (E. coli NM522 pGlysivb; 42° C.) was 15 min. The reduction in viability [3] was ~3 log, the “inactivation, live CFU at end of BG production process” value [4] was “total inactivation” and the “concentration used for total inactivation by BPL” value [5] was “less than 0.025%”. For the same compound, the “drop in living cell counts (CFU)” value [6] was 4 log and the solubility in water [7] was “highly soluble in water”.
